Source: patent US20090170939A1, “Use of Fenofibrate or a Derivative Thereof for Preventing Diabetic Retinopathy” (Laboratoires Fournier S.A., priority 2005, published 2009)

Tested on: diabetic retinopathy in patients with type 2 diabetes
Experiment: FIELD study: laser treatment for diabetic retinopathy (tertiary outcome)
Assay type: in vivo, human
Details: follow-up more than 5 years
Description: As fibrates are known to correct the typical dyslipidaemia of diabetes, their role in cardiovascular risk reduction in diabetes may be especially important. A study called Fenofibrate Intervention and Event Lowering in Diabetes (FIELD) has been carried out which study is a multicentre, double-blind, placebo-controlled trail evaluating the effects on coronary morbidity and mortality of long-term treatment with fenofibrate to elevate high-density lipoprotein (HDL) cholesterol levels and lower triglyceride (TG) levels in patients with type 2 diabetes and total blood cholesterol between 3 and 6.5 mmol/L (115 and 250 mg/dL) at study entry. In type 2 diabetes, rates of coronary heart disease (CDH) are 3 to 4 times higher than those of persons without diabetes at any given level of blood cholesterol, and at any given age. […] Further, people with type 2 diabetes have both higher in hospital mortality after myocardial infarction (MI) and a poorer outcome in the subsequent years, losing on average between 5 and 10 years of life expectancy.
The study was is randomized, double-blind, placebo-controlled parallel-group trial among middle-aged to elderly people with type 2 diabetes mellitus considered to be at increased risk of CHD. Those with and without pre-existing vascular disease or other lipid abnormalities, such as low HDL cholesterol and elevated TG, were eligible, provided the total blood cholesterol level at screening fell between 3.0 and 6.5 mmol/L (about 115-250 mg/dL) plus either a total-to-HDL cholesterol ratio of >4.0 or a blood TG level >1.0 mmol/L (88.6 mg/dL). The study has been conducted in 63 clinical centres in Australia (39), Finland (9) and New Zealand (15).
The underlying principle guiding recruitment of patients into the study was that of clinical uncertainty: that is, patients were only to be considered if the patients' treating physicians were substantially uncertain about the value of lipid-modifying therapy for that particular individual and felt that there was no indication for lipid-modifying therapy. […]

With `CC(C)OC(=O)C(C)(C)Oc1ccc(C(=O)c2ccc(Cl)cc2)cc1` [Fenofibrate, 1-methylethyl ester (isopropyl ester) of fenofibric acid] the “Patients with laser treatment for diabetic retinopathy (one or more laser treatments), %” value (fenofibrate 200 mg comicronized, one capsule daily, type 2 diabetes) was 3.6%, the “Incident cases (first laser treatment for retinopathy post-randomisation), %” value (fenofibrate 200 mg daily) was 2.3% and the “Prevalent cases (all reported laser treatments post-randomisation), %” value (fenofibrate 200 mg daily) was 7.3%.
